Earlier results, collected in patent US20130287890A1, “INHIBITOR OF THE PRODUCTION OF ADVANCED GLYCATION END PRODUCTS” (UENO FINE CHEMICALS INDUSTRY, LTD., priority 2012, published 2013).

Conditions: background art; cited from earlier work

For `N=C(N)NN` [Aminoguanidine, aminoguanidine], the adverse drug reactions is listed as “hepatic impairment”.
